Experimental data reported in ChEMBL document CHEMBL3745623, “Polyphenols isolated from leaves of Vitis thunbergii var. taiwaniana regulate APP related pathway” (Bioorg Med Chem Lett, 2016).
The source made the active and inactive calls. No cut-off for these calls is given here.

Key:
N2a [1] = assay: Upregulation of soluble APP alpha protein level in mouse N2A cells expressing human APP695 at 10 uM after 10 hrs by Western blot analysis; type: functional, cell-based
[2] = biological target: Disintegrin and metalloproteinase domain-containing protein 17 (Homo sapiens) (UniProt P78536); assay: Activation of TACE in human SH-SY5Y cells at 8 uM after 10 hrs by fluorescence assay; type: cell-based
N2a [3] = assay: Effect on ADAM17 level in mouse N2A cells expressing human APP695 at 8 uM after 10 hrs by Western blot analysis; type: functional, cell-based
[4] = biological target: Beta-secretase 1 (Homo sapiens) (UniProt P56817); assay: Inhibition of BACE1 in human SH-SY5Y cells at 8 uM after 10 hrs by fluorescence plate reader analysis; type: cell-based
N2a [5] = assay: Effect on full length APP level in mouse N2A cells expressing human APP695 at 8 uM after 10 hrs by Western blot analysis; type: functional, cell-based
N2a [6] = assay: Upregulation of soluble APP alpha protein level in mouse N2A cells expressing human APP695 at 8 uM after 10 hrs by Western blot analysis; type: functional, cell-based
N2a [7] = assay: Cytotoxicity against mouse N2A cells expressing human APP695 assessed as reduction in cell viability up to 8 uM after 10 hrs by CCK-8 assay; type: cell-based
[8] = biological target: Beta-secretase 1 (Mus musculus) (UniProt P56818); assay: Inhibition of BACE1 in mouse N2A cells expressing human APP695 assessed as decrease in soluble APP beta protein level at 8 uM after 10 hrs by Western blot analysis; type: cell-based
N2a [9] = assay: Effect on mature ADAM10 level in mouse N2A cells expressing human APP695 at 8 uM after 10 hrs by Western blot analysis; type: functional, cell-based
N2a [10] = assay: Effect on immature ADAM10 level in mouse N2A cells expressing human APP695 at 8 uM after 10 hrs by Western blot analysis; type: functional, cell-based
N2a [11] = assay: Effect on BACE1 level in mouse N2A cells expressing human APP695 at 8 uM after 10 hrs by Western blot analysis; type: functional, cell-based
N2a [12] = assay: Decrease in amyloid beta40 level in mouse N2A cells expressing human APP695 at 10 uM after 10 hrs by sandwich ELISA; type: functional, cell-based
N2a [13] = assay: Decrease in amyloid beta40 level in mouse N2A cells expressing human APP695 after 10 hrs by sandwich ELISA; type: functional, cell-based
[14] = biological target: Beta-secretase 1 (Mus musculus) (UniProt P56818); assay: Inhibition of BACE1 in mouse N2A cells at 8 uM after 10 hrs by fluorescence plate reader analysis; type: cell-based
N2a [15] = assay: Decrease in amyloid beta42 level in mouse N2A cells expressing human APP695 after 10 hrs by sandwich ELISA; type: functional, cell-based
N2a [16] = assay: Cytotoxicity against mouse N2A cells expressing human APP695 assessed as reduction in cell viability at 8 to 100 uM after 10 hrs by CCK-8 assay; type: cell-based
N2a [17] = assay: Downregulation of N-terminal fragment of presenilin1 level in mouse N2A cells at 8 uM after 10 hrs by Western blot analysis; type: functional, cell-based
N2a [18] = assay: Inhibition of gamma-secretase in mouse N2A cells transfected with NotchdeltaE assessed as reduction in Notch intracellular domain level at 8 uM after 10 hrs by densitometry analysis; type: cell-based
N2a [19] = assay: Cytotoxicity against mouse N2A cells expressing human APP695 assessed as reduction in cell viability at 16 to 100 uM after 10 hrs by CCK-8 assay; type: cell-based
N2a [20] = assay: Cytotoxicity against mouse N2A cells expressing human APP695 assessed as reduction in cell viability up to 16 uM after 10 hrs by CCK-8 assay; type: cell-based
[21] = biological target: Beta-secretase 1 (Mus musculus) (UniProt P56818); assay: Inhibition of BACE1 in mouse N2A cells expressing human APP695 assessed as reduction in amyloid beta40 level at 10 uM after 10 hrs by sandwich ELISA; type: cell-based
[22] = biological target: Beta-secretase 1 (Mus musculus) (UniProt P56818); assay: Inhibition of BACE1 in mouse N2A cells expressing human APP695 assessed as reduction in amyloid beta42 level after 10 hrs by sandwich ELISA; type: cell-based
[23] = biological target: Beta-secretase 1 (Mus musculus) (UniProt P56818); assay: Inhibition of BACE1 in mouse N2A cells expressing human APP695 assessed as reduction in amyloid beta40 level after 10 hrs by sandwich ELISA; type: cell-based

Chain of Beta-secretase 1 (Homo sapiens) (P56817 whole entry): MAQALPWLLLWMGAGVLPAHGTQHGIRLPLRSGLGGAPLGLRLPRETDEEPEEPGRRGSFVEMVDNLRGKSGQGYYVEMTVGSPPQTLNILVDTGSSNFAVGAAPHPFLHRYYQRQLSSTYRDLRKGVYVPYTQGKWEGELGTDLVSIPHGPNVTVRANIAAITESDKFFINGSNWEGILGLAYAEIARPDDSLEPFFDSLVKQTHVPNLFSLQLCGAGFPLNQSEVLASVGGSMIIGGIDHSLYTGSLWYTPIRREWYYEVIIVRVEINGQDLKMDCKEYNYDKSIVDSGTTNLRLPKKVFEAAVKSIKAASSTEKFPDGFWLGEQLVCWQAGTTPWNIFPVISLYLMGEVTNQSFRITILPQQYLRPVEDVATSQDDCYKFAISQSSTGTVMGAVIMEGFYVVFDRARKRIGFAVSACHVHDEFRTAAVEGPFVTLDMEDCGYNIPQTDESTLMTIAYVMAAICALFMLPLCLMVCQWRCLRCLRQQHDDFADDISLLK
Chain of Disintegrin and metalloproteinase domain-containing protein 17 (Homo sapiens) (P78536 whole entry, the tested form may be a part): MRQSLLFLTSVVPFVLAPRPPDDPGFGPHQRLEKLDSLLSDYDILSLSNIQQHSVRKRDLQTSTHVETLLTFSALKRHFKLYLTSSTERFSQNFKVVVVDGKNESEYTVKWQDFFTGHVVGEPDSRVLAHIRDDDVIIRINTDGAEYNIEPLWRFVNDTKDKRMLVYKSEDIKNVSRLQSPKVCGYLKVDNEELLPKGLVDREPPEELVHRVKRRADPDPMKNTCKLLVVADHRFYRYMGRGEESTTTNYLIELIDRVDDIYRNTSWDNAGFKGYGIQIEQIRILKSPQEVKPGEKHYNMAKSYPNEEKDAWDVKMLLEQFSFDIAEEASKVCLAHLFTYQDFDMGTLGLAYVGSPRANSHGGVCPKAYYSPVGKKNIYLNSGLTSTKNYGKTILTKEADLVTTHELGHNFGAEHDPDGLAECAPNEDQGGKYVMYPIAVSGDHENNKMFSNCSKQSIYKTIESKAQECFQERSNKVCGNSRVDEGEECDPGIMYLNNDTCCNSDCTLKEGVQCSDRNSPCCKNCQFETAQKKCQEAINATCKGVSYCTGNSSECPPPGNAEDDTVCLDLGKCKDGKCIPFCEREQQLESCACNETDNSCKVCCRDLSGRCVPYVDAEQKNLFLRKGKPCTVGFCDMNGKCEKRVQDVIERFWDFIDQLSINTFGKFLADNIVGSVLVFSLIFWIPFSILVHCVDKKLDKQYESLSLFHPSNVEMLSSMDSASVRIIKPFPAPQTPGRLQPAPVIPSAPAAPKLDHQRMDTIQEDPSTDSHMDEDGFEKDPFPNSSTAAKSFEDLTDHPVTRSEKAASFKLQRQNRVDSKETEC
Chain of Beta-secretase 1 (Mus musculus) (P56818 whole entry): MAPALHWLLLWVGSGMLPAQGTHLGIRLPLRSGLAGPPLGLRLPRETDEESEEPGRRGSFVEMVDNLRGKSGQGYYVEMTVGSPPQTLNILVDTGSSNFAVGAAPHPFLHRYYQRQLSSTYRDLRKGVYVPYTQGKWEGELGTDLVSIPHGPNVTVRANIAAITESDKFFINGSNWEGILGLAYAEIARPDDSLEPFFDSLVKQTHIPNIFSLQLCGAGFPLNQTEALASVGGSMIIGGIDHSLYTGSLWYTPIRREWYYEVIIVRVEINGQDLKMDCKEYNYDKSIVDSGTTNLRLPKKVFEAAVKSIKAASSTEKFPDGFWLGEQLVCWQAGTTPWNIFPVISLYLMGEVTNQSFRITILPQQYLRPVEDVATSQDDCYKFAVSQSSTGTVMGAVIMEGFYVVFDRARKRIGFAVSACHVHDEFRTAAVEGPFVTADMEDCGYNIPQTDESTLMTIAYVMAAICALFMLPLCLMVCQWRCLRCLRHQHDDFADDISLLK

Row | Activity [2] | inhibition [4] | inhibition [8] | inhibition [14] | SMILES | Activity (N2a [3]) | Activity (N2a [5]) | Activity (N2a [6]) | Activity (N2a [7]) | Activity (N2a [9]) | Activity (N2a [10]) | Activity (N2a [11]) | Activity (N2a [12]) | Activity (N2a [13]) | Activity (N2a [15]) | Activity (N2a [16]) | Activity (N2a [17]) | inhibition (N2a [18]) | other results
1 | – | – | – | – | C[C@@H](NC(=O)c1cc(C(=O)N[C@@H](Cc2ccccc2)[C@H](O)CNC2CC2)cc(N(C)S(C)(=O)=O)c1)c1ccccc1 | – | – | – | – | – | – | – | – | – | – | – | – | – | Activity (N2a [1]): Active
2 | Active | Active | inactive | inactive | Oc1ccc([C@H]2c3c(O)cc(O)cc3[C@H]3c4c(cc(O)cc4[C@H]4[C@H](c5ccc(O)cc5)c5cc(O)cc(O)c5[C@H]24)O[C@@H]3c2ccc(O)cc2)cc1 | inactive | inactive | Active | Non-toxic | inactive | inactive | inactive | Active | Dose-dependent effect | Dose-dependent effect | Dose-dependent effect | inactive | inactive | –
3 | inactive | Active | inactive | Active | Oc1ccc([C@@H]2c3c(O)cc(O)cc3[C@@H]3c4c(cc(O)c5c4[C@H]2[C@@H](c2cc(O)cc(O)c2)[C@@H]5c2ccc(O)cc2)O[C@H]3c2ccc(O)cc2)cc1 | inactive | inactive | Active | – | inactive | inactive | inactive | Active | Dose-dependent effect | Dose-dependent effect | – | inactive | inactive | Activity (N2a [19]): Dose-dependent effect; Activity (N2a [20]): Non-toxic
4 | inactive | Active | Active | Active | Oc1ccc([C@@H]2c3c(O)cc4c5c3[C@@H]([C@@H](c3ccc(O)cc3)c3c(O)cc(O)cc3[C@@H]5[C@@H](c3ccc(O)cc3)O4)[C@H]2c2cc(O)cc(O)c2)cc1 [AMPELOPSIN C] | inactive | inactive | Active | Non-toxic | inactive | inactive | inactive | – | – | – | Dose-dependent effect | inactive | inactive | inhibition [21]: Active; inhibition [22]: Dose-dependent effect; inhibition [23]: Dose-dependent effect
